Source: patent publication US20260152487A1 (Sitryx Therapeutics Limited, priority 2021, published 2026)
Read-outs that look alike come from different tables or passages of the source.

Experiments:
[1] = target: T1, recombinant human PKM2 (Homo sapiens, UniProt P14618); test: Human PKM2 activation assay (Kinase-Glo Plus luminescent detection of generated ATP); format: biochemical; settings: for Emax: read-out: hPKM2 Emax; for EC50: read-out: hPKM2 EC50
T1 construct: His (N); purchased R&D Systems
T1 sequence (P14618 2-531 limits assumed): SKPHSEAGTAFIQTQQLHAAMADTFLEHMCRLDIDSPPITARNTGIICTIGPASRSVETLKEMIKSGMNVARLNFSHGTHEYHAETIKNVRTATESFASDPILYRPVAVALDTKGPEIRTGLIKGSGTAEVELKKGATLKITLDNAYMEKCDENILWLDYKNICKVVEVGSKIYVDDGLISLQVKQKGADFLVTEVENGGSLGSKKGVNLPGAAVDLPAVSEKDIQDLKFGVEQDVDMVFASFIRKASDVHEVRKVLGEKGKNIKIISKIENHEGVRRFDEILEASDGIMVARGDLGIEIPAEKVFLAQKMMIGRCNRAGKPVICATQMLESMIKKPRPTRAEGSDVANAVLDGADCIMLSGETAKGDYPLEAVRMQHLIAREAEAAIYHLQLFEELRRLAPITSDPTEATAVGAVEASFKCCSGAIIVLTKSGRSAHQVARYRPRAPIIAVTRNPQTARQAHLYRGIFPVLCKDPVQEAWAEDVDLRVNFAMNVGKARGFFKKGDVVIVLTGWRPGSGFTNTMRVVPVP
How it was run: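 Luminescent ATP detection (Kinase-Glo Plus, 15 min, 26 °C) followed a 60 min, 26 °C shaken reaction of compound with […] His-tagged human PKM2, PEP and ADP in imidazole/KCl/MgCl2 buffer with Tween20 and BSA, pH 7.2.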

[2] = tested on: A549 cells; test: A549 cell proliferation in low-serine medium (CellTiter-Glo 2.0 viable cell number); format: cell-based; settings: Homo sapiens, 72 h, 3 days, Assay Medium with 20 μM L-serine
Procedure: The effect of compounds of Formula (Ia) on A549 cell proliferation in low-serine medium was assessed using a luminescence assay of viable cell number (CellTiter-Glo® 2.0, Promega) duplexed with a fluorescent cytotoxicity assessment (CelITox™ Green, Promega). Cell culture reagents were from ThermoFisher unless specified otherwise. Assay reagents were from Sigma-Aldrich unless specified otherwise. Test Compounds were prepared as 10 mM DMSO stocks and dilution series prepared in DMSO for direct dilution into culture medium.
Cells were passaged every 3-4 days at 80-90% confluence. The cell monolayer was washed twice with room-temperature Ca^2+/Mg-free PBS and 4 ml room-temperature trypsin-EDTA added to the flask. After 5 minutes' incubation (37° C., 5% CO2) to detach cells, trypsin was quenched with 13 ml warmed complete growth medium and the cells harvested and diluted to 2.4×10^4 cells/ml for dispensing into 384-well clear-bottom black-walled plates (600 cells/well).
Following overnight incubation, growth medium was aspirated from each well and the cells washed twice with Assay Medium comprising Basal Medium Eagle supplemented with 3% heat-inactivated dialysed FBS plus 2 mM L-glutamine plus 20 μM L-serine (Sigma-Aldrich). After aspiration of the final wash medium, Assay Medium containing Test Compound was added to each well. DMSO vehicle controls were included on each plate.
Cells were incubated for 3 days in a humidified incubator (37° C., 5% CO2) at which point CelITox™ Green and CellTiter-Glo® reagents were prepared according to the manufacturer's instructions. Triton-X was added to HIGH wells for cytotoxicity determination and the plate incubated for 30 minutes (20° C., ambient humidity and pCO2). CelITox™ Green reagent was added to each well and the plate covered, placed on an orbital shaker @450 rpm for 2 minutes, and incubated in the dark for 15 minutes (20° C., ambient humidity and pCO2). Endpoint fluorescence was measured using a plate reader (PHERAstar® FSX, BMG Labtech).
Following cytotoxicity determination, CellTiter-Glo® reagent was added to each well and the plate placed on an orbital shaker @450 rpm for 2 minutes to lyse cells. Plates were incubated in the dark for 15-30 minutes (20° C., ambient humidity and pCO2) prior to endpoint luminescence measurement (PHERAstar® FSX, BMG Labtech).
Proliferation was calculated by normalizing luminescence signals to LOW controls obtained from a parallel plate processed at the time of Test Compound challenge and HIGH (DMSO vehicle) wells from the compound plate. IC50 values were determined from a 4-parameter logistic fit of compound concentration-response curves.

[3] = target: T2, recombinant human PKLR (Homo sapiens, UniProt P30613); test: Human PKLR activation assay (Kinase-Glo Plus luminescent detection of generated ATP); format: biochemical; settings: for EC50: read-out: hPKLR EC50; for Emax: read-out: hPKLR Emax (%)
T2 construct: His (N); purchased R&D Systems
T2 sequence (P30613 whole entry): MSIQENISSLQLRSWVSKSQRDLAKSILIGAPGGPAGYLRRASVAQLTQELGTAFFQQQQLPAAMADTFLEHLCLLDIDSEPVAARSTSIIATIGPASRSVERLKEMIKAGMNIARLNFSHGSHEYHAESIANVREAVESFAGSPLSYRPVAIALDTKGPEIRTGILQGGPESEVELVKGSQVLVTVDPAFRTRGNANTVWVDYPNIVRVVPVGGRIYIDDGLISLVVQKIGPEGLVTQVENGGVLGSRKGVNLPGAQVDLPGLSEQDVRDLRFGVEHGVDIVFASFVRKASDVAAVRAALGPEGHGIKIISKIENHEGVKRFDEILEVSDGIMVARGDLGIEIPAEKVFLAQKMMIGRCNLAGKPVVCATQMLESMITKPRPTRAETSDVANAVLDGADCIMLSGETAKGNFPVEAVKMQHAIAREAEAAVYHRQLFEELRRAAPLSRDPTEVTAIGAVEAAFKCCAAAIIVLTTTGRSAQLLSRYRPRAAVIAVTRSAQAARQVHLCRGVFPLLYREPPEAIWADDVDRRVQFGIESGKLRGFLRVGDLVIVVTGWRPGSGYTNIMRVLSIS
Procedure: Compound activation of recombinant human PKLR pyruvate kinase activity was determined by biochemical assay. N-terminal His-tagged enzyme was sourced from R&D Systems and its substrates phosphoenolpyruvate (PEP) and ADP from Sigma-Aldrich and 2Bscientific Ltd, respectively. The Kinase-Glo® Plus luminescence assay was from Promega. All other reagents were from Sigma-Aldrich. Test Compounds were prepared as 10 mM DMSO stocks and dilution series prepared in DMSO for direct dilution into Assay Buffer comprising 50 mM imidazole, 50 mM KCl, 7 mM MgCl2, 0.01% Tween20, 0.05% BSA (pH 7.2).
Human PKLR was diluted into Assay Buffer to a final concentration of 5 pM. Enzyme-Assay Buffer mix was dispensed into 384-well shallow-well white-walled plates and Test Compounds added by acoustic dispense (Echo®, Labcyte Inc).
After 60 minutes' incubation on an orbital shaker (300 rpm, 26° C.), enzyme activity was quantified by the luminescent detection of generated ATP. Kinase-Glo® Plus reagent was added to each well and the plates incubated for a further 15 minutes on an orbital shaker in the dark (300 rpm, 26° C.) before luminescence measurement on a plate reader (PHERAstar® FSX, BMG Labtech).
Percentage activation was calculated by normalising […] signals to plate LOW (DMSO vehicle) and HIGH (5 μM TEPP-46) controls. EC50 and Emax values were determined from 4-parameter logistic fits of compound concentration-response curves.

[4] = percentage activation normalised to DMSO vehicle (LOW) and 5 μM TEPP-46 (HIGH)
[5] = recombinant human PKM2 activation, 4-parameter logistic fit
[6] = activation of recombinant human PKLR, 4-parameter logistic fit
[7] = percentage activation normalised to DMSO vehicle (LOW) and 5 μM TEPP-46 (HIGH) controls
[8] = data from repeat experiments (*)
[9] = line of the repeat experiment (EC50 marked *)

Row | Compound | Emax [1, 4] [%] | EC50 [1, 5] [nM] | IC50 [2] [nM] | EC50 [3, 6] [nM] | Emax [3, 7] [%] | EC50 [1, 8] [nM] | Emax [1, 9] [%] | EC50 ([3]; * data from repeat experiments) [nM] | Emax ([3]; line of the repeat experiments (EC50 marked *)) [%]
1 | CC(C)n1ccc(Cn2ncc3cc(S(=O)(=O)c4ccccc4)ccc3c2=O)n1 [Example 95, 2-((1-isopropyl-1H-pyrazol-3-yl)methyl)-6-(phenylsulfonyl)phthalazin-1(2H)-one] | 116 | 95.4 | 9.9 |  |  |  |  |  | 
2 | CC1(C)Cc2cc(Cn3ncc4cc(S(=O)(=O)c5ccccc5)ccc4c3=O)ccc2O1 [Example 35, 2-((2,2-dimethyl-2,3-dihydrobenzofuran-5-yl)methyl)-6-(phenylsulfonyl)phthalazin-1(2H)-one] | 110 | 183 | 10.4 |  |  |  |  |  | 
3 | COc1ccc(S(=O)(=O)c2ccc3c(=O)n(Cc4ccc(Cl)cc4F)ncc3c2)cc1 [Example 46, 2-(4-chloro-2-fluorobenzyl)-6-((4-methoxyphenyl)sulfonyl)phthalazin-1(2H)-one] | 76 | 234 | 4.8 |  |  |  |  |  | 
4 | COc1ccc(S(=O)(=O)c2ccc3c(=O)n(Cc4ccccc4)ncc3c2)cc1 [Example 50, 2-benzyl-6-((4-methoxyphenyl)sulfonyl)phthalazin-1(2H)-one] | 97.5 | 70.6 | 3.1 |  |  |  |  |  | 
5 | COc1ccc(S(=O)(=O)c2ccc3c(=O)n(Cc4ccno4)ncc3c2)cc1 [Example 45, 2-(isoxazol-5-ylmethyl)-6-((4-methoxyphenyl)sulfonyl)phthalazin-1(2H)-one] | 83.5 | 435 | 26.2 |  |  |  |  |  | 
6 | COc1ccc(S(=O)(=O)c2ccc3c(=O)n(Cc4ccccc4N)ncc3c2)cc1 [Example 43, 2-(2-aminobenzyl)-6-((4-methoxyphenyl)sulfonyl)phthalazin-1(2H)-one] | 111 | 42.5 | 1.7 |  |  |  |  |  | 
7 | COc1ccc(S(=O)(=O)c2ccc3c(=O)n(Cc4ccc(OC)nc4)ncc3c2)cc1 [Example 51, 6-((4-methoxyphenyl)sulfonyl)-2-((6-methoxypyridin-3-yl)methyl)phthalazin-1(2H)-one] | 104 | 24.1 | 3.5 |  |  |  |  |  | 
8 | COc1ccc(S(=O)(=O)c2ccc3c(=O)n(Cc4ccnc(O)c4)ncc3c2)cc1 [Example 55, 2-((2-hydroxypyridin-4-yl)methyl)-6-((4-methoxyphenyl)sulfonyl)phthalazin-1(2H)-one] |  |  | 21.7 |  |  |  |  |  | 
9 | O=C(c1ccc(NS(=O)(=O)c2cccc3cccnc23)cc1)N1CCN(CC2CC2)CC1 [Mitapivat, mitapivat, reference compound] |  |  | 4.4 |  |  |  |  |  | 
10 | Cn1ccc(Cn2ncc3cc(S(=O)(=O)c4ccccc4)c(F)cc3c2=O)n1 [Example 242, 7-fluoro-2-((1-methyl-1H-pyrazol-3-yl)methyl)-6-(phenylsulfonyl)phthalazin-1(2H)-one] | 107 | 102 |  | 22.2 | 134 |  |  |  | 
11 | O=c1c2ccc(S(=O)(=O)c3cn[nH]c3)cc2cnn1Cc1ccc2c(n1)CCO2 [Example 253, 6-(1H-pyrazol-4-ylsulfonyl)-2-((2,3-dihydrofuro[3,2-b]pyridin-5-yl)methyl)phthalazin-1(2H)-one] | 104 | 20.1 |  | 5.59 | 107 | 21.6 | 105 | 4.32 | 118
12 | O=c1c2ccc(S(=O)(=O)c3cn[nH]c3)cc2cnn1Cc1cc2n(n1)CCO2 [Example 323] |  | 50.5 |  | 6.44 |  |  |  |  | 
13 | O=c1c2ccc(S(=O)(=O)c3ccc4c(c3)OCCO4)cc2cnn1Cc1cc[nH]n1 [Example 207, 2-((1H-pyrazol-3-yl)methyl)-6-((2,3-dihydrobenzo[b][1,4]dioxin-6-yl)sulfonyl)phthalazine-1(2H)-one] | 99.9 | 33.3 |  | 4.2 | 123 |  |  |  | 
14 | O=c1c2ccc(S(=O)(=O)c3cn[nH]c3)cc2cnn1Cc1cccc(C2CC2)n1 [Example 287, 6-((1H-pyrazol-4-yl)sulfonyl)-2-((6-cyclopropylpyridin-2-yl)methyl)phthalazin-1(2H)-one] | 103 | 45.2 |  | 13 | 110 |  |  |  | 
15 | O=c1c2ccc(S(=O)(=O)c3cnn(C4CC4)c3)cc2cnn1Cc1cccnc1O [Example 193, 6-(1-cyclopropyl-1H-pyrazol-4-ylsulfonyl)-2-((2-hydroxypyridin-3-yl)methyl)phthalazin-1(2H)-one] | 84.9 | 161 |  | 86.3 | 111 |  |  |  | 
16 | O=c1c2ccc(S(=O)(=O)c3cnn(CCO)c3)cc2cnn1Cc1ccn(C2CC2)n1 [Example 272, 2-((1-cyclopropyl-1H-pyrazol-3-yl)methyl)-6-((1-(2-hydroxyethyl)-1H-pyrazol-4-yl)sulfonyl)phthalazin-1(2H)-one] | 91.3 | 93.4 |  | 39.1 | 124 |  |  |  | 
17 | O=c1c2ccc(S(=O)(=O)c3cnn(C4CC4)c3)cc2cnn1Cc1cc[nH]n1 [Example 228, 2-((1H-pyrazol-3-yl)methyl)-6-((1-cyclopropyl-1H-pyrazol-4-yl)sulfonyl)phthalazin-1(2H)-one] | 116 | 40.4 |  | 21.2 | 119 | 41.5 | 112 |  | 
18 | O=c1c2ccc(S(=O)(=O)c3cnn(CCO)c3)cc2cnn1Cc1ccc2c(n1)CCO2 [Example 309] |  | 50.4 |  | 6.58 |  |  |  |  | 
19 | O=c1c2cc(NCCO)c(S(=O)(=O)c3ccccc3)cc2cnn1Cc1ccn(C2CC2)n1 [Example 265, 2-((1-cyclopropyl-1H-pyrazol-3-yl)methyl)-7-((2-hydroxyethyl)amino)-6-(phenylsulfonyl)phthalazin-1(2H)-one] | 114 | 134 |  | 13.5 | 127 |  |  |  | 
20 | COc1ccc(S(=O)(=O)c2ccc3c(=O)n(Cc4ncccc4O)ncc3c2)cc1 [Example 113, 2-((3-hydroxypyridin-2-yl)methyl)-6-(4-methoxyphenylsulfonyl)phthalazin-1(2H)-one] | 133 | 163 |  | 9.64 | 118 |  |  |  | 
21 | Cn1ccc(Cn2ncc3cc(S(=O)(=O)c4ccccc4)c(NCCO)cc3c2=O)n1 [Example 244, 7-((2-hydroxyethyl)amino)-2-((1-methyl-1H-pyrazol-3-yl)methyl)-6-(phenylsulfonyl)phthalazin-1(2H)-one] | 105 | 206 |  | 27.4 | 123 |  |  |  | 
22 | O=c1c2ccc(S(=O)(=O)c3cc4c(cn3)OCC4)cc2cnn1Cc1cc[nH]n1 [Example 258, 2-((1H-pyrazol-3-yl)methyl)-6-((2,3-dihydrofuro[2,3-c]pyridin-5-yl)sulfonyl)phthalazin-1(2H)-one] | 108 | 88.8 |  | 15.3 | 142 |  |  |  | 
